Experiments:
carrageenin edema = assay: Inhibitory effect on carrageenin edema (oral administration); type: in vivo, rat (Sprague-Dawley strain); settings: for ED40: Rattus norvegicus, po, 3 h
Method: Inhibitory effect on carrageenin edema.
The experiment was carried out according to a method conforming to Van Arman, C. […] One hour after the administration of the test compound, 0.1 ml of 1% carrageenin solution in physiological saline was injected subcutaneously into the plantar sarface of the right hind paws of the rats. One hour after injection of carrageenin, the volume of the injected paws was measured hourly for 4 hours. Inhibition percent to carrageenin edema (%)* was calculated in comparison with the volume of paws of rats of a control group, to which only 0.3% CMC-Na solution was orally administered. [formula]

[1] = Stability on storage at 50° C. and humidity of 70% for 1 month; type: physicochemical; settings: among the compounds (I)
Method: For example, when the compounds (I) are kept at temperature of 50° C., and humidity of 70% for 1 month, no substantial change with respect to their appearances and values of quantitative analysis was observed, and no decomposition product was detected by thin-layer chromatography. Thus compounds (I) are prepared for administration in the form of pharmaceutical compositions according to conventional methods in the field of the art, and it is possible to prepare a pharmaceutical composition which comprises a therapeutically effective amount of at least one compound of the general formula (I) as an active ingredient, i.e. anti-inflammatory composition, in solid administration form (e.g. tablets, granules, powders, capsules, suppository), and liquid administration form (e.g. suspension, emulsion). In that case, as carrier, vehicle, solvent or dispersant, there may be used any of those which are known in the field of art. There may be exemplified water, starch, lactose, crystalline cellulose, magnesium stearate, hydroxypropyl cellulose, mannitol, carboxymethyl cellulose, glycol, ethanol, corn oil, peanut oil, castor oil, cacao butter, isocacao, polyoxyethylene stearate. […]

gastric mucosa [2] = assay: Effect on gastric mucosa (2) (oral administration); type: in vivo, rat (Sprague-Dawley strain); settings: rats, 4 hours
Method: 4 Hours after the administration, the rat was sacrificed with ether, and its stomach was removed. The stomach was treated with 5% formalin for 3 minutes, and gastric mucosa was observed under a stereoscopic microscope. When gastric lesion in the mucosa was found, the number of the lesion in the mucosa was counted.

[3] = test system: febrile body temperature (Brewer's yeast); assay: Antipyretic activity (oral administration); type: in vivo, rat (Sprague-Dawley strain); settings: 30 mg/Kg
Method: Antipyretic activity (oral administration)
According to a method conforming to Winter, C. A. et al [The Journal of Pharmacology and Experimental Therapeutics 133, 117, (1961)], 20% Brewer's yeast suspension in physiological saline was injected subcutaneously to 5 male rats in each group (Sprague-Dawley strain) weighing 200 to 250 g in an amount of 1.0 ml per 100 g of body weight of the rat. After fasting for 18 hours, each test compound suspended in 1% gum arabic solution was administered orally to the rats in an amount of 1.0 ml per 100 g of body weight. Then, the rectal temperature of the rats was taken.

[4] = test system: writhing syndrome due to acetic acid; assay: Analgesic activity, stretching method (oral administration); type: in vivo, mouse (ddY-strain)
Method: The experiment was carried out according to a method conforming to Koster R. et al [Federation Proceedings 18, 412, (1960)]. […] 30 Minutes after administration of the test compound, 0.6% acetic acid aqueous solution was injected intraperitoneally to the mice in an amount of 0.1 ml per 10 g of body weight of the mouse, and then frequency of writhing syndrome due to acetic acid was counted for 20 minutes. Inhibition percent to the writhing syndrome was calculated in comparison with frequency of writhing syndrome counted on mice of a control group, to which only 1% gum arabic solution was orally administered.

gastric mucosa [5] = assay: Effect on gastric mucosa (1) (oral administration); type: in vivo, mouse (ddY-strain); design: unit not given here; settings: mice, 4 hours
Method: 4 Hours after the administration, the mouse was sacrificed with ether, and its stomach was removed. The stomach was treated with 5% formalin for 3 minutes, and gastric mucosa was observed under a stereoscopic microscope. When gastric lesion in the mucosa was found, the length of each lesion was measured. Degree of gastric damage (i.e. GD50)* was calculated on the basis of the length of the lesion of each mouse.
Remark *: GD50 : The value corresponding to the relative frequency of 50% on the normal probability paper plotted the length of gastric lesions of each mouse.

adjuvant arthritis = assay: Inhibition to adjuvant arthritis (oral administration); type: in vivo, rat (Sprague-Dawley strain); settings: for Increase in body weight / Weight of the organs: Adrenal glands / Weight of the organs: Spleen / Weight of the organs: Thymus: once a day for 7 days
Method: Inhibition to adjuvant arthritis.
According to a method conforming to Fujihira et al [Oyo Yakuri, 5, 169, (1971)], liquid paraffin suspension of Mycobacterium butiricum (hereinafter abbreviated as adjuvant) was injected subcutaneously to right hind paws of male rats (Spraque-Dawley strain) weighing 150 to 170 g in an amount of 0.3 mg/0.05 ml/rat. 14 Days after adjuvant injection, the rats, paws of which swelled to a similar degree, were selected and they were separated into groups. From the 15th day after adjuvant injection, each test compound suspended in 0.3% CMC-Na solution was orally administered once a day for 7 days to the 7 rats in each group in the dose shown in the following table 2.
The 16th, 19th and 22nd days after adjuvant injection the volume of left hand paws (i.e. paws not treated with the adjuvant) of the rats and their body weight were measured. Inhibition percent to the arthritis (edema) is calculated according to the same equation as that used in Experiment 1, and the value of ED40 is calculated on the basis of the inhibition percent. Then the rats were sacrificed with ether and the weight of their thymus, adrenal glands and spleen was determined.

[6] = test system: pain threshold of hind paws (Brewer's yeast); assay: Analgesic activity, Randall and Selitto method (oral administration); type: in vivo, rat (Sprague-Dawley strain); settings: Rattus norvegicus; oral, Litchfield-Wilcoxon method, from increasing percent of pain threshold
Method: Randall and Selitto method
According to a method conforming to Randall, L. O. and Selitto, J. J. [Archives Internationales de Pharmacodynamie et de Therapie, 111, 409, (1957)], 0.1 ml of 10% Brewer's yeast suspension in physiological saline was injected subcutaneously into the plantar surface of the right hind paws of 5 male rats in each group (Sprague-Dawley strain) weighing 90 to 110 g. 2 Hours after administration of the yeast suspension, each test compound suspended in 0.3% CMC-Na solution was orally administered to the rats in an amount of 1.0 ml per 100 g of body weight of the rat. 30 Minutes, 60 minutes and 120 minutes after administration of the test compounds, threshold values of left and right hind paws of the rats were measured by an electric pressure device made by Daiwa Kinzoku Co., Ltd. (Japan). The change of threshold was obtained by comparing the pain threshold obtained in a group after the yeast injection with that obtained before the yeast injection, in the same group as above. Increasing percent of pain threshold of the test compound was calculated on the basis of the mean changes of threshold of the test group and of that of the control group. Rats of the control group were administered orally only 0.3% CMC-Na solution.
According to the Litchfield-Wilcoxon method [The Journal of Pharmacology and Experimental Therapeutics, 96, 96, (1949)], ED50 value was calculated as follows on the basis of the increasing percent of pain threshold;

[7] = 50 mg/Kg oral, 3 hour after administration
[8] = 100 mg/Kg oral, 3 hour after administration
[9] = 100 mg/Kg oral, 4 hour after administration

Structure (SMILES): CC(C(=O)C(=O)O)c1ccc(N2Cc3ccccc3C2=O)cc1 (centres unmarked) [2-Oxo-3-[4-(1-oxo-2-isoindolinyl)phenyl]butanoic acid]
- Inhibition to carrageenin edema (carrageenin edema; [7]): 22.5%
- Inhibition to carrageenin edema (carrageenin edema; [8]): 53.2%
- Stability (in words) [1]: more stable
- Mean number of gastric lesion (gastric mucosa [2]; 25 mg/Kg oral): 0
- Mean number of gastric lesion (gastric mucosa [2]; 50 mg/Kg oral): 0
- Mean number of gastric lesion (gastric mucosa [2]; 100 mg/Kg oral): 1.0

Structure (SMILES): CC(=O)Oc1ccccc1C(=O)O [Aspirin]
- Drop of febrile body temperature [3]: 1 °C
- Mean number of gastric lesion (gastric mucosa [2]; 12.5 mg/Kg oral): 1.0
- Mean number of gastric lesion (gastric mucosa [2]; 25 mg/Kg oral): 1.0
- Mean number of gastric lesion (gastric mucosa [2]; 50 mg/Kg oral): 5.4
- Mean number of gastric lesion (gastric mucosa [2]; 100 mg/Kg oral): 15.0
- Inhibition to writhing syndrome ([4]; 100 mg/Kg oral): 0%
- Inhibition to writhing syndrome ([4]; 200 mg/Kg oral): 43%
- Inhibition to writhing syndrome ([4]; 400 mg/Kg oral): 70%
- Degree of gastric damage (GD50) (gastric mucosa [5]; 100 mg/Kg oral): 2.0
- Degree of gastric damage (GD50) (gastric mucosa [5]; 200 mg/Kg oral): 16.1
- Degree of gastric damage (GD50) (gastric mucosa [5]; 282 mg/Kg oral): 18.6
- Degree of gastric damage (GD50) (gastric mucosa [5]; 400 mg/Kg oral): 31.2

Structure (SMILES): CC(C)Cc1ccc(C(C)C(=O)O)cc1 (centres unmarked) [Ibuprofen]
- Inhibition to carrageenin edema (carrageenin edema; [7]): 19.2 ± 22.0%
- Inhibition to carrageenin edema (carrageenin edema; 50 mg/Kg oral, 4 hour after administration): 23.5 ± 14.2%
- Inhibition to carrageenin edema (carrageenin edema; [8]): 42.2 ± 0.3%
- Inhibition to carrageenin edema (carrageenin edema; [9]): 33.7 ± 3.1%
- Inhibition to carrageenin edema (carrageenin edema; 200 mg/Kg oral, 3 hour after administration): 43.9 ± 1.0%
- Inhibition to carrageenin edema (carrageenin edema; 200 mg/Kg oral, 4 hour after administration): 37.1 ± 4.7%
- ED40 (carrageenin edema): 90 mg/kg
- Inhibition to adjuvant arthritis (adjuvant arthritis; 25 mg/Kg oral, 1st day): 25.6%
- Inhibition to adjuvant arthritis (adjuvant arthritis; 25 mg/Kg oral, 4th day): 15.7%
- Inhibition to adjuvant arthritis (adjuvant arthritis; 25 mg/Kg oral, 7th day): 32.0%
- Increase in body weight (adjuvant arthritis; 25 mg/Kg oral): 26.7 g
- Weight of the organs: Adrenal glands (adjuvant arthritis; 25 mg/Kg oral): 13.7 ± 0.9 mg/100g of body weight
- Weight of the organs: Spleen (adjuvant arthritis; 25 mg/Kg oral): 420.5 ± 34.9 mg/100g of body weight
- Weight of the organs: Thymus (adjuvant arthritis; 25 mg/Kg oral): 143.3 ± 8.9 mg/100g of body weight
- Inhibition to adjuvant arthritis (adjuvant arthritis; 100 mg/Kg oral, 1st day): 28.1%
- Inhibition to adjuvant arthritis (adjuvant arthritis; 100 mg/Kg oral, 4th day): 37.3%
- Inhibition to adjuvant arthritis (adjuvant arthritis; 100 mg/Kg oral, 7th day): 53.4%
- Increase in body weight (adjuvant arthritis; 100 mg/Kg oral): 16.0 g
- Weight of the organs: Adrenal glands (adjuvant arthritis; 100 mg/Kg oral): 15.3 ± 1.7 mg/100g of body weight
- Weight of the organs: Spleen (adjuvant arthritis; 100 mg/Kg oral): 438.0 ± 40.0 mg/100g of body weight
- Weight of the organs: Thymus (adjuvant arthritis; 100 mg/Kg oral): 127.8 ± 20.7 mg/100g of body weight
- ED50 [6]: 130 mg/kg

Structure (SMILES): CCCCC1C(=O)N(c2ccccc2)N(c2ccccc2)C1=O [Phenylbutazone]
- Inhibition to carrageenin edema (carrageenin edema; 12.5 mg/Kg oral, 3 hour after administration): 12.0 ± 5.5%
- Inhibition to carrageenin edema (carrageenin edema; 12.5 mg/Kg oral, 4 hour after administration): 19.9 ± 3.7%
- Inhibition to carrageenin edema (carrageenin edema; 25 mg/Kg oral, 3 hour after administration): 9.6 ± 8.3%
- Inhibition to carrageenin edema (carrageenin edema; 25 mg/Kg oral, 4 hour after administration): 14.3 ± 4.7%
- Inhibition to carrageenin edema (carrageenin edema; [8]): 54.3 ± 2.0%
- Inhibition to carrageenin edema (carrageenin edema; [9]): 50.7 ± 6.0%
- ED40 (carrageenin edema): 62 mg/kg
- Mean number of gastric lesion (gastric mucosa [2]; 50 mg/Kg oral): 0.2
- Mean number of gastric lesion (gastric mucosa [2]; 100 mg/Kg oral): 4.2
- Mean number of gastric lesion (gastric mucosa [2]; 200 mg/Kg oral): 9.6
- Inhibition to writhing syndrome ([4]; 100 mg/Kg oral): 10%
- Inhibition to writhing syndrome ([4]; 200 mg/Kg oral): 15%
- Inhibition to writhing syndrome ([4]; 400 mg/Kg oral): 61%
- Degree of gastric damage (GD50) (gastric mucosa [5]; 100 mg/Kg oral): 5.2
- Degree of gastric damage (GD50) (gastric mucosa [5]; 200 mg/Kg oral): 10.0
- Degree of gastric damage (GD50) (gastric mucosa [5]; 282 mg/Kg oral): 13.0
- Inhibition to adjuvant arthritis (adjuvant arthritis; 25 mg/Kg oral, 1st day): 32.2%
- Inhibition to adjuvant arthritis (adjuvant arthritis; 25 mg/Kg oral, 4th day): 28.8%
- Inhibition to adjuvant arthritis (adjuvant arthritis; 25 mg/Kg oral, 7th day): 38.3%
- Increase in body weight (adjuvant arthritis; 25 mg/Kg oral): 30.9 g
- Weight of the organs: Adrenal glands (adjuvant arthritis; 25 mg/Kg oral): 13.2 ± 1.9 mg/100g of body weight
- Weight of the organs: Spleen (adjuvant arthritis; 25 mg/Kg oral): 441.7 ± 29.9 mg/100g of body weight
- Weight of the organs: Thymus (adjuvant arthritis; 25 mg/Kg oral): 141.6 ± 12.5 mg/100g of body weight
- Inhibition to adjuvant arthritis (adjuvant arthritis; 100 mg/Kg oral, 1st day): 34.3%
- Inhibition to adjuvant arthritis (adjuvant arthritis; 100 mg/Kg oral, 4th day): 37.9%
- Inhibition to adjuvant arthritis (adjuvant arthritis; 100 mg/Kg oral, 7th day): 51.6%
- Increase in body weight (adjuvant arthritis; 100 mg/Kg oral): 31.4 g
- Weight of the organs: Adrenal glands (adjuvant arthritis; 100 mg/Kg oral): 12.0 ± 1.0 mg/100g of body weight
- Weight of the organs: Spleen (adjuvant arthritis; 100 mg/Kg oral): 444.0 ± 39.6 mg/100g of body weight
- Weight of the organs: Thymus (adjuvant arthritis; 100 mg/Kg oral): 146.2 ± 14.8 mg/100g of body weight
- ED50 [6]: 250 mg/kg

From patent US4166125A, “2-Oxo-phenylbutanoic acid derivatives” (Grelan Pharmaceutical Co., Ltd., priority 1977, dated 1979)
